Patent publication US20250129078A1, “ERBB2 INHIBITORS” (Cogent Biosciences, Inc., priority 2023, published 2025)

What follows are molecules tested against EGFR WT (Homo sapiens (Human), UniProt P00533) (assay: ErbB enzyme assay (CisBio HTRF-KinEASE-TK), EGFR WT). Conditions: ATP at Km (25 μM), 1 h incubation.
Type: biochemical
Procedure, shortened: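 Compounds, serially diluted three-fold, were incubated with enzyme for 1 h at ambient temperature. Detection reagents were then added for a further hour, and the 655/620 nm HTRF ratio was normalised to uninhibited and pre-quenched controls. IC50 was fitted with a four-parameter logistic model.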

Sequence of EGFR WT (P00533 25-1210): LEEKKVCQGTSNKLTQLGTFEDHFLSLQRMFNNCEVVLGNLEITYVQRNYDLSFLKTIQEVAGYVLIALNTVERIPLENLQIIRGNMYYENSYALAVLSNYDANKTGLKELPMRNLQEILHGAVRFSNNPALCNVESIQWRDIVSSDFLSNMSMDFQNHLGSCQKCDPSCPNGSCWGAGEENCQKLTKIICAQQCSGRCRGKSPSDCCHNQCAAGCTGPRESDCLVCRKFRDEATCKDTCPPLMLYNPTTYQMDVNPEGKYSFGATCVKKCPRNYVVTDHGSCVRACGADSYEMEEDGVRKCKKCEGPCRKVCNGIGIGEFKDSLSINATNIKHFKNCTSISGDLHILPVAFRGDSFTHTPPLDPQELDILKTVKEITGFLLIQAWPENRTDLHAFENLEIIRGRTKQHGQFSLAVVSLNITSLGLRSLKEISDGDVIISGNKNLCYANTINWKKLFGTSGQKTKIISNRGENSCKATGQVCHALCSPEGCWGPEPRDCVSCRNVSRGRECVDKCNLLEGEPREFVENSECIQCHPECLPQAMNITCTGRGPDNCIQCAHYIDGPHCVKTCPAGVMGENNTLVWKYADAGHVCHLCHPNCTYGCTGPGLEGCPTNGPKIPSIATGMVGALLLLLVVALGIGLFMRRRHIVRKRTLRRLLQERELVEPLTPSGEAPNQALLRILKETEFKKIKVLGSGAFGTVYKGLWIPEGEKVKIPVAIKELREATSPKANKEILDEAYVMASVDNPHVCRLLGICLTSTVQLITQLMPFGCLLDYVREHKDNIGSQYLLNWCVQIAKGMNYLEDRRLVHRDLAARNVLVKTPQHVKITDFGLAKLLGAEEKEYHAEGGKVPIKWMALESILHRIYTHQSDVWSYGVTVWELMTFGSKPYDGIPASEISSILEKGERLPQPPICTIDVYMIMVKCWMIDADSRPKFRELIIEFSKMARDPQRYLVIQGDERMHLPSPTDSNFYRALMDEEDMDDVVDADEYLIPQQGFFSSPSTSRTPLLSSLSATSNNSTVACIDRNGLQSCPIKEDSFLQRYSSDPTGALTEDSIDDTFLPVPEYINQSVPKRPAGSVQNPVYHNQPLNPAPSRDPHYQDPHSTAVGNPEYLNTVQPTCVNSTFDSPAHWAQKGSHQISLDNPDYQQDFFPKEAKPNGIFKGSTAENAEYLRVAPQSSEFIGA

SMILES | IC50
C=CC(=O)N[C@H]1CN(c2ncc3ncnc(Nc4ccc(Oc5ccc6c(c5)nnn6C)c(C)c4F)c3n2)CC[C@@H]1C [Compound 229, N-((3R,4S)-1-(8-((2-fluoro-3-methyl-4-((1-methyl-1H-benzo[d][1,2,3]triazol-5-yl)oxy)phenyl)amino)pyrimido[5,4-d]pyrimidin-2-yl)-4-methylpiperidin-3-yl)acrylamide] | 100 to 500 nM
C=CC(=O)N[C@@H]1CN(c2ncc3ncnc(Nc4ccc(Oc5ccc6c(c5)nnn6C)c(C)c4F)c3n2)CC[C@H]1C [Compound 230, N-((3S,4R)-1-(8-((2-fluoro-3-methyl-4-((1-methyl-1H-benzo[d][1,2,3]triazol-5-yl)oxy)phenyl)amino)pyrimido[5,4-d]pyrimidin-2-yl)-4-methylpiperidin-3-yl)acrylamide] | 100 to 500 nM
Cc1cc(Nc2ncnc3cnc(N4CCN(C(=O)/C=C/Cn5cccn5)CC4)nc23)ccc1Oc1ccc2c(c1)nnn2C [Compound 233, (E)-1-(4-(8-((3-methyl-4-((1-methyl-1H-benzo[d][1,2,3]triazol-5-yl)oxy)phenyl)amino)pyrimido[5,4-d]pyrimidin-2-yl)piperazin-1-yl)-4-(1H-pyrazol-1-yl)but-2-en-1-one] | ≥ 1000 nM
C=CC(=O)N1CCN(c2ncc3ncnc(Nc4ccc(Oc5cnn6ccnc6c5)c(C)c4)c3n2)CC1 [Compound 234, 1-(4-(8-((4-(imidazo[1,2-b]pyridazin-7-yloxy)-3-methylphenyl)amino)pyrimido[5,4-d]pyrimidin-2-yl)piperazin-1-yl)prop-2-en-1-one] | < 50 nM
C=CC(=O)N1CCN(c2ncc3ncnc(Nc4ccc(Oc5cc6nnn(C)c6c(C)c5F)c(C)c4)c3n2)C[C@H]1C [Compound 236, (R)-1-(4-(8-((4-((6-fluoro-1,7-dimethyl-1H-benzo[d][1,2,3]triazol-5-yl)oxy)-3-methylphenyl)amino)pyrimido[5,4-d]pyrimidin-2-yl)-2-methylpiperazin-1-yl)prop-2-en-1-one] | 100 to 500 nM
C=CC(=O)N1CCN(c2ncc3ncnc(Nc4ccc(Oc5cnn6ccnc6c5)c(C)c4F)c3n2)CC1 [Compound 237, 1-(4-(8-((2-fluoro-4-(imidazo[1,2-b]pyridazin-7-yloxy)-3-methylphenyl)amino)pyrimido[5,4-d]pyrimidin-2-yl)piperazin-1-yl)prop-2-en-1-one] | < 50 nM
C=C1CCN(C2CCN(c3ccc4ncnc(Nc5ccc(Oc6ccc7c(c6)nnn7C)c(C)c5F)c4n3)CC2)C1=O [Compound 241, 1-(1-(4-((2-fluoro-3-methyl-4-((1-methyl-1H-benzo[d][1,2,3]triazol-5-yl)oxy)phenyl)amino)pyrido[3,2-d]pyrimidin-6-yl)piperidin-4-yl)-3-methylenepyrrolidin-2-one] | ≥ 1000 nM
C=CC(=O)N1CCN(c2ccc3ncnc(Nc4cc(Cl)c(Oc5ccc6c(c5)nnn6C)cc4F)c3n2)CC1 [Compound 244, 1-(4-(4-((5-chloro-2-fluoro-4-((1-methyl-1H-benzo[d][1,2,3]triazol-5-yl)oxy)phenyl)amino)pyrido[3,2-d]pyrimidin-6-yl)piperazin-1-yl)prop-2-en-1-one] | 100 to 500 nM
C=CC(=O)N1[C@H](C)CN(c2ccc3ncnc(Nc4ccc(Oc5ccc6c(c5)nnn6C)c(C)c4)c3n2)C[C@H]1C [Compound 248, 1-((2R,6R)-2,6-dimethyl-4-(4-((3-methyl-4-((1-methyl-1H-benzo[d][1,2,3]triazol-5-yl)oxy)phenyl)amino)pyrido[3,2-d]pyrimidin-6-yl)piperazin-1-yl)prop-2-en-1-one] | ≥ 1000 nM
C=CC(=O)N1CCN(c2ccc3ncnc(Nc4ccc(Oc5cnc6c(c5)ncn6C(F)F)c(C)c4)c3n2)C[C@H]1C [Compound 249, (R)-1-(4-(4-((4-((3-(difluoromethyl)-3H-imidazo[4,5-b]pyridin-6-yl)oxy)-3-methylphenyl)amino)pyrido[3,2-d]pyrimidin-6-yl)-2-methylpiperazin-1-yl)prop-2-en-1-one] | < 50 nM
C=CC(=O)N1CCN(c2ccc3ncnc(Nc4cc(F)c(Oc5ccc6c(c5)nnn6C)c(Cl)c4)c3n2)C[C@H]1C [Compound 252, (R)-1-(4-(4-((3-chloro-5-fluoro-4-((1-methyl-1H-benzo[d][1,2,3]triazol-5-yl)oxy)phenyl)amino)pyrido[3,2-d]pyrimidin-6-yl)-2-methylpiperazin-1-yl)prop-2-en-1-one] | 50 to 100 nM
C=CC(=O)N1CCN(c2ccc3ncnc(Nc4ccc(Oc5cc(F)c6c(c5)nnn6C)c(C)c4)c3n2)C[C@H]1C [Compound 254, (R)-1-(4-(4-((4-((7-fluoro-1-methyl-1H-benzo[d][1,2,3]triazol-5-yl)oxy)-3-methylphenyl)amino)pyrido[3,2-d]pyrimidin-6-yl)-2-methylpiperazin-1-yl)prop-2-en-1-one] | 50 to 100 nM
C=CC(=O)N1CCN(c2ccc3ncnc(Nc4cc(C)c(Oc5ccc6c(c5)nnn6C)c(F)c4)c3n2)C[C@H]1C [Compound 255, (R)-1-(4-(4-((3-fluoro-5-methyl-4-((1-methyl-1H-benzo[d][1,2,3]triazol-5-yl)oxy)phenyl)amino)pyrido[3,2-d]pyrimidin-6-yl)-2-methylpiperazin-1-yl)prop-2-en-1-one] | 50 to 100 nM
C=CC(=O)N1CCN(c2ccc3ncnc(Nc4c(OC)cc(Oc5cc(F)c6c(c5)ncn6C)c(C)c4F)c3n2)C[C@H]1C [Compound 257, (R)-1-(4-(4-((2-fluoro-4-((7-fluoro-1-methyl-1H-benzo[d]imidazol-5-yl)oxy)-6-methoxy-3-methylphenyl)amino)pyrido[3,2-d]pyrimidin-6-yl)-2-methylpiperazin-1-yl)prop-2-en-1-one] | < 50 nM
C=CC(=O)N1CCN(c2ccc3ncnc(Nc4ccc(Oc5cc6nnn(C)c6cc5F)c(C)c4)c3n2)C[C@H]1C [Compound 262, (R)-1-(4-(4-((4-((6-fluoro-1-methyl-1H-benzo[d][1,2,3]triazol-5-yl)oxy)-3-methylphenyl)amino)pyrido[3,2-d]pyrimidin-6-yl)-2-methylpiperazin-1-yl)prop-2-en-1-one] | 100 to 500 nM
C=CC(=O)N[C@]1(C)CCN(c2ccc3ncnc(Nc4ccc(Oc5ccc6c(c5)nnn6C)c(C)c4)c3n2)C1 [Compound 263, (R)-N-(3-methyl-1-(4-((3-methyl-4-((1-methyl-1H-benzo[d][1,2,3]triazol-5-yl)oxy)phenyl)amino)pyrido[3,2-d]pyrimidin-6-yl)pyrrolidin-3-yl)acrylamide] | 100 to 500 nM
C=CC(=O)N1C[C@@H](N(C)c2ccc3ncnc(Nc4ccc(Oc5ccc6c(c5)nnn6C)c(C)c4F)c3n2)CC[C@@H]1C [Compound 267, 1-((2S,5S)-5-((4-((2-fluoro-3-methyl-4-((1-methyl-1H-benzo[d][1,2,3]triazol-5-yl)oxy)phenyl)amino)pyrido[3,2-d]pyrimidin-6-yl)(methyl)amino)-2-methylpiperidin-1-yl)prop-2-en-1-one] | ≥ 1000 nM
C=CC(=O)N[C@@H]1CCCN(c2ccc3ncnc(Nc4cc(C)c(Oc5ccc6c(c5)nnn6C)cc4OC(F)F)c3n2)C1 [Compound 269, (R)-N-(1-(4-((2-(difluoromethoxy)-5-methyl-4-((1-methyl-1H-benzo[d][1,2,3]triazol-5-yl)oxy)phenyl)amino)pyrido[3,2-d]pyrimidin-6-yl)piperidin-3-yl)acrylamide] | ≥ 1000 nM
C=CC(=O)N[C@H]1CN(c2ccc3ncnc(Nc4ccc(Oc5ccc6c(c5)nnn6C)c(C)c4)c3n2)C[C@@H]1F [Compound 276, N-((3S,4S)-4-fluoro-1-(4-((3-methyl-4-((1-methyl-1H-benzo[d][1,2,3]triazol-5-yl)oxy)phenyl)amino)pyrido[3,2-d]pyrimidin-6-yl)pyrrolidin-3-yl)acrylamide] | 100 to 500 nM
C=CC(=O)N[C@H]1CN(c2ccc3ncnc(Nc4ccc(Oc5ccc6c(c5)nnn6C)c(C)c4)c3n2)C[C@H]1F [Compound 277, N-((3S,4R)-4-fluoro-1-(4-((3-methyl-4-((1-methyl-1H-benzo[d][1,2,3]triazol-5-yl)oxy)phenyl)amino)pyrido[3,2-d]pyrimidin-6-yl)pyrrolidin-3-yl)acrylamide] | 100 to 500 nM
C=CC(=O)N[C@@H]1CCN(c2ccc3ncnc(Nc4ccc(Oc5ccc6c(c5)nnn6C)c(C)c4F)c3n2)C[C@@H]1F [Compound 279, N-((3S,4R)-3-fluoro-1-(4-((2-fluoro-3-methyl-4-((1-methyl-1H-benzo[d][1,2,3]triazol-5-yl)oxy)phenyl)amino)pyrido[3,2-d]pyrimidin-6-yl)piperidin-4-yl)acrylamide] | 500 to 1000 nM
C=CC(=O)N[C@H]1CCN(c2ccc3ncnc(Nc4ccc(Oc5ccc6c(c5)nnn6C)c(C)c4F)c3n2)C[C@@H]1F [Compound 280, N-((3S,4S)-3-fluoro-1-(4-((2-fluoro-3-methyl-4-((1-methyl-1H-benzo[d][1,2,3]triazol-5-yl)oxy)phenyl)amino)pyrido[3,2-d]pyrimidin-6-yl)piperidin-4-yl)acrylamide] | 100 to 500 nM
C=CC(=O)N[C@H]1CCN(c2ccc3ncnc(Nc4ccc(Oc5ccc6c(c5)nnn6C)c(C)c4F)c3n2)C[C@H]1F [Compound 281, N-((3R,4S)-3-fluoro-1-(4-((2-fluoro-3-methyl-4-((1-methyl-1H-benzo[d][1,2,3]triazol-5-yl)oxy)phenyl)amino)pyrido[3,2-d]pyrimidin-6-yl)piperidin-4-yl)acrylamide] | < 50 nM
C=CC(=O)N[C@H]1CCCN(c2ccc3ncnc(Nc4ccc(Oc5ccc6c(c5)nnn6C)c(C)c4F)c3n2)CC1 [Compound 282, (S)-N-(1-(4-((2-fluoro-3-methyl-4-((1-methyl-1H-benzo[d][1,2,3]triazol-5-yl)oxy)phenyl)amino)pyrido[3,2-d]pyrimidin-6-yl)azepan-4-yl)acrylamide] | 500 to 1000 nM
C=CC(=O)N[C@@H]1CCCN(c2ccc3ncnc(Nc4ccc(Oc5ccc6c(c5)nnn6C)c(C)c4F)c3n2)CC1 [Compound 283, (R)-N-(1-(4-((2-fluoro-3-methyl-4-((1-methyl-1H-benzo[d][1,2,3]triazol-5-yl)oxy)phenyl)amino)pyrido[3,2-d]pyrimidin-6-yl)azepan-4-yl)acrylamide] | ≥ 1000 nM
